Results reported in patent US20190092769A1, “[…] AND T[…] ACTING UPON THE […] AND CENTRAL NERVOUS SYSTEMS” (CENTRO DE INVESTIGACION Y […] LOS MEDICAMENTOS (CIDEM), priority 2009, published 2019).

Tests used:
[1] = system: cerebellar granules damaged with glutamate; assay: Cytoprotective effect in cerebellar granules exposed to glutamate; format: cell-based
Excerpt: For neuro-protective in vitro evaluation, we used PC12 cell cultures exposed to damage from glutamate and hydrogen peroxide, as well as cerebellar granules damaged with glutamate.
Diazepam (DZP), derivative of commercial 1,4-benzodiazepine.

[2] = target: T1, mitochondrial FOF1 ATPase (complex V) (Rattus norvegicus, UniProt P10719+P15999); assay: ATP hydrolysis by FOF1 ATPase in submitochondrial particles; format: biochemical, Wistar rats
T1 construct: These particles are obtained from isolated mitochondria from Wistar rats' liver; from tissue; host or cells: submitochondrial particles from Wistar rat liver mitochondria (sonicated)
Excerpt: These particles are obtained from isolated mitochondria from Wistar rats' liver, submitted to an ultrasound process to break their membranes. Thus, so-called mitoplasts or submitchondrial particles are formed with inverted portions of the inner membrane that preserve the ATP hydrolytic activity of the FOF1 ATPase in the presence of external ATP.

[3] = system: mitochondrial membrane potential; assay: Dissipation of mitochondrial membrane potential (safranine O fluorescence); format: biochemical; conditions: Ca2+ 50 μM and phosphate (Pi) 2 mM
Procedure: This membrane potential can be fluorimetrically estimated by using safranine O. This marker is captured in the suspension by energized mitochondria (in the presence of substrates of the electronic transportation chain, such as succinate) provoking a fluorescence decrease. When the MPT process takes place, safranine is again released to the environment, thus increasing, fluorescence. […] In a dosage dependent manner, JM-20 inhibits potential loss, being the maximum inhibitory level at 15 μM (orange line).
Safranine (10 μM) is captured by energized mitochondria (succinate 5 mM rotenone 2.5 μM). In the presence of MPT inducers such as Ca^2+ and Pi, an immediate loss of mitochondrial membrane potential takes place (black line) that is prevented by the classic MPT inhibitor, CsA (red line) and by JM-20 (green, blue and orange lines) in a dosage dependent manner. The excitation/emission wave length used for safranine are 495/586 nm, respectively. A mitoprotective behavior similar to the one reported in the previous Table was found in the other molecules evaluated.

[4] = system: mitochondrial permeability transition (MPT); assay: Mitochondrial permeability transition in isolated mitochondria (absorbance decrease at 540 nm); format: biochemical; conditions: inducers Ca2+ 50 μM and phosphate (Pi)
Excerpt: Mitochondrial permeability transition can be estimated by absorbance decrease of a mitochondrial suspension at 540 nm.

[5] = target: T2, mitochondrial uniporter calcium excipient (Homo sapiens, UniProt Q8NE86); assay: Mitochondrial calcium capture in isolated mitochondria (Calcium Green 5N); format: biochemical
T2 construct: This experiment is also carried out with isolated mitochondria (0.5 mg/ml); from tissue
T2 sequence (Q8NE86 51-351): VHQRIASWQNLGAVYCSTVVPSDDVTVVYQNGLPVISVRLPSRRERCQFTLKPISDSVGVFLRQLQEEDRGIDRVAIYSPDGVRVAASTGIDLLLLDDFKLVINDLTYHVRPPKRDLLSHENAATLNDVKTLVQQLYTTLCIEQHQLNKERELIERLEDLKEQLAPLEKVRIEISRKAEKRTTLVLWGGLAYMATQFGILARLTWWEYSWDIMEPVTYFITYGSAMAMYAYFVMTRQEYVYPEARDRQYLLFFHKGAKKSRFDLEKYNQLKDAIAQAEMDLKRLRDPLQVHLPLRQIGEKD
T2 sequence (Q9H4I9 48-107 partner limits assumed): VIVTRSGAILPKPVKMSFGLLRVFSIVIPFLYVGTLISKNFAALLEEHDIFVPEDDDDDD
Procedure: This experiment is also carried out with isolated mitochondria (0.5 mg/ml) energized with succinate 5 mM+rotenone 2.5 μM and the presence of Calcium Green 5N fluorescent marker which increases fluorescence in the presence of calcium. […] The excitation/emission wave lengths used for Calcium Green 5N are 506/531 nm, respectively.

Compound: 4-(2′-Nitrophenyl)-3-Carbonylalcohoxi-2-Methyl-1, 4-Dihydropyrido (2,3-b-5,6-e)-1,4-Benzodiazepine [JM-20]
- cytoprotective effect at concentrations lower than that of Nifedipine and Diazepam independently [1]: 100 times
- IC50 ([2]; submitochondrial particles from Wistar rats' liver mitochondria, read-out: mean inhibitory concentration (IC50) of ATP hydrolysis): 10.2 µM
- maximum inhibitory level for loss of mitochondrial membrane potential [3]: 15 µM
- MIC: concentration at which total inhibition of mitochondrial permeability transition took place [4]: 15 µM
- inhibition of calcium mitochondrial uptake ([5]; 10 μM, isolated mitochondria 0.5 mg/ml, 20 μM Ca2+): significantly inhibits
- inhibition of the mitochondrial calcium transmitter compared with Nifedipine ([5]; FIG. 25): more powerful in inhibiting the transmitter than other dihydropyridines (Nif)

Compound: CN1C(=O)CN=C(c2ccccc2)c2cc(Cl)ccc21 [Diazepam, reference compound]
- inhibition of the hydrolytic activity of the mitochondrial enzyme (in words) [2]: Neither Nifedipine: nor Diazepam inhibited
- inhibition of calcium captation by the organelle ([5]; 20 μM, isolated mitochondria 0.5 mg/ml, 20 μM Ca2+): neither nifedipine (Nif 20 μM_light blue line) nor diazepam (DZP 20 μM), or the combination of both (Nif+DZP 1.0 μM—pink line) succeeded in inhibiting

Compound: N.N.N.N.N.N.N.N.N.N.N.N.N.N.[Cl-].[Cl-].[Cl-].[Cl-].[Cl-].[Cl-].[O-2].[O-2].[Ru+3].[Ru+3].[Ru+4] [Ruthenium-red, reference compound]
- inhibition of calcium captation by the organelle ([5]; 1 μM, isolated mitochondria 0.5 mg/ml, 20 μM Ca2+): calcium captation does not occur
